Columns and labels:
[1] = tested on: normal NK cells expanded with K562-aAPC; experiment: drug sensitivity score (DSS) (DSS units); higher = more sensitive; extreme values may be limits of the assay; settings: 72 h; IL-2 2.5 ng/mL
Protocol: (§1)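 Drug sensitivity and resistance testing on K562-aAPC-expanded normal NK cells: 5 concentrations (10-fold steps over a 10,000-fold range), 72 h at 37 °C, viability by CellTiter-Glo normalised to DMSO and benzethonium chloride controls; DSS from the fitted curve.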

[2] = tested on: KHYG-1 (IL-2 2.5 ng/mL); experiment: percent inhibition of viability; higher = more inhibition; settings: 72 h
[3] = tested on: normal primary NK cells, pool 3 (3 donors) (IL-2 2.5 ng/mL); experiment: as above; settings: 72 h
[4] = tested on: normal primary NK cells, pool 2 (3 donors) (IL-2 2.5 ng/mL); experiment: as above; settings: 72 h
[5] = tested on: SNK-6 (IL-2 2.5 ng/mL); experiment: as above; settings: 72 h
[6] = tested on: normal primary NK cells, pool 1 (3 donors) (IL-2 2.5 ng/mL); experiment: as above; settings: 72 h
[7] = tested on: YT (IL-2 2.5 ng/mL); experiment: as above; settings: 72 h
[8] = tested on: NK-YS (IL-2 2.5 ng/mL); experiment: as above; settings: 72 h
[9] = tested on: DERL-7 (IL-2 2.5 ng/mL); experiment: as above; settings: 72 h
[10] = tested on: NKL (IL-2 2.5 ng/mL); experiment: as above; settings: 72 h
[11] = tested on: NK-92 (IL-2 2.5 ng/mL); experiment: as above; settings: 72 h
[12] = tested on: IMC-1 (IL-2 20 ng/mL); experiment: as above; settings: 72 h
[13] = tested on: normal primary NK cells, pool 1 (3 donors), resting (IL-2 0 ng/mL); experiment: as above; settings: 72 h
[14] = tested on: KAI3 (IL-2 2.5 ng/mL); experiment: as above; settings: 72 h
[15] = tested on: normal NK cells expanded with K562-aAPC; experiment: as above; settings: 72 h, IL-2 2.5 ng/mL
Protocol: as §1

[16] = tested on: KHYG-1 (IL-2 2.5 ng/mL); experiment: drug sensitivity score (DSS) (DSS units); higher = more sensitive; extreme values may be limits of the assay; settings: 72 h
[17] = tested on: normal primary NK cells, pool 3 (3 donors) (IL-2 2.5 ng/mL); experiment: as above; settings: 72 h
[18] = tested on: normal primary NK cells, pool 2 (3 donors) (IL-2 2.5 ng/mL); experiment: as above; settings: 72 h
[19] = tested on: SNK-6 (IL-2 2.5 ng/mL); experiment: as above; settings: 72 h
[20] = tested on: normal primary NK cells, pool 1 (3 donors) (IL-2 2.5 ng/mL); experiment: as above; settings: 72 h
[21] = tested on: YT (IL-2 2.5 ng/mL); experiment: as above; settings: 72 h
[22] = tested on: NK-YS (IL-2 2.5 ng/mL); experiment: as above; settings: 72 h
[23] = tested on: DERL-7 (IL-2 2.5 ng/mL); experiment: as above; settings: 72 h
[24] = tested on: NKL (IL-2 2.5 ng/mL); experiment: as above; settings: 72 h
[25] = tested on: NK-92 (IL-2 2.5 ng/mL); experiment: as above; settings: 72 h
[26] = tested on: IMC-1 (IL-2 20 ng/mL); experiment: as above; settings: 72 h
[27] = tested on: normal primary NK cells, pool 1 (3 donors), resting (IL-2 0 ng/mL); experiment: as above; settings: 72 h
[28] = tested on: KAI3 (IL-2 2.5 ng/mL); experiment: as above; settings: 72 h

CS(=O)(=O)c1ccc(C(=O)Nc2ccc(Cl)c(-c3ccccn3)c2)c(Cl)c1 [Vismodegib] (max concentration tested 10000 nM)
Settings	drug sensitivity score
[1]	0
[16]	0.07
[17]	0
[18]	0.05
[19]	0
[20]	0
[21]	0.65
[22]	0.2
[23]	2.77
[24]	3.21
[25]	5.87
[26]	0
[27]	1.51
[28]	0

percent inhibition of viability [%]
Settings	1 nM	10 nM	100 nM	1000 nM	10000 nM
[2]	-7.27	-4.1	-4.53	-3.56	13.7
[3]	-5.07	-0.78	8.43	-1.07	0.11
[4]	-4.51	8.63	4.94	7.5	11.8
[5]	-24.4	-21.3	-33.1	-9.73	9.74
[6]	-0.96	12.3	5.5	3.58	12.3
[7]	-2.78	-9.59	3.13	-6.38	24.6
[8]	-6.25	-5.83	-1.92	0.14	14.4
[9]	5.54	5.58	5.06	6.24	36.2
[10]	-2.06	-5.75	8.65	9.14	39.8
[11]	1.83	1.49	-0.7	17.8	59.3
[12]	-2.4	2.13	-1.82	2.66	8.93
[13]	-4.18	4.86	12.4	12.3	11.2
[14]	-6.47	-10.6	-10.8	8.7	6.77
[15]	-6.55	-2.58	-4.57	6.27	3.14

COc1ccc(C2=N[C@@H](c3ccc(Cl)cc3)[C@@H](c3ccc(Cl)cc3)N2C(=O)N2CCNC(=O)C2)c(OC(C)C)c1 [Nutlin-3] (max concentration tested 10000 nM)
Settings	drug sensitivity score
[1]	8.63
[16]	0.02
[17]	4.75
[18]	7.31
[19]	10.1
[20]	9.16
[21]	6.81
[22]	9.5
[23]	9.5
[24]	3.64
[25]	2.8
[26]	0.61
[27]	14.5
[28]	7.56

percent inhibition of viability [%]
Settings	1 nM	10 nM	100 nM	1000 nM	10000 nM
[2]	-6.71	-9.4	-3.85	-2.52	12.2
[3]	-6.84	5.45	0.48	4.02	75.6
[4]	-11.5	9.9	0.22	13.9	90
[5]	-8.93	-12	-4.65	42.5	85.7
[6]	-5.38	6.43	9.32	29	96.8
[7]	-1.48	-2.54	1.47	19.9	69.5
[8]	-2.06	-4.19	0.64	37.4	83.9
[9]	0.15	0.54	7.5	29	99.3
[10]	3.59	-3.19	6.18	9.61	42.5
[11]	-20.5	0.59	-14.7	13	28.5
[12]	-5.54	-4.03	-1.5	-1.01	21.2
[13]	-5.64	8.67	11.7	69	93.8
[14]	-3.27	-5.08	7.55	34.8	60.6
[15]	-4.98	0.87	1.74	19.4	99.2

— the supplement of paper PMC5908809
